Laboratory results: patent US20080153819A1, “METHODS FOR TREATING MACULAR EDEMA AND PATHOLOGIC OCULAR ANGIOGENESIS USING A NEUROPROTECTIVE AGENT AND A RECEPTOR TYROSINE KINASE INHIBITOR” (priority 2006, published 2008)

Legend:
[1] = test system: existing laser-induced choroidal neovascularization (CNV); experiment: Laser-induced CNV in the mouse, oral gavage, regression paradigm; type: in vivo; settings: 3 mg/kg/day p.o. from day 7 after laser
[2] = test system: preretinal neovascularization (NV); experiment: Rat model of oxygen-induced retinopathy (OIR), single intravitreal injection; type: in vivo; settings: for % Inhibition (vs. vehicle-injected eye) of preretinal NV / Median NV (clockhour score): 5 μl intravitreal injection; for % Inhibition (vs. vehicle-injected eye) of preretinal NV: Day 14/6
Text: METHODS: Pregnant Sprague-Dawley rats were received at 14 days gestation and subsequently gave birth on Day 22±1 of gestation. Immediately following parturition, pups were pooled and randomized into separate litters (n=17 pups/litter), placed into separate shoebox cages inside oxygen delivery chamber, and subjected to an oxygen-exposure profile from Day 0-14 postpartum. Litters were then placed into room air from Day 14/0 through Day 14/6 (days 14-20 postpartum). Additionally on Day 14/0, each pup was randomly assigned as an oxygen-exposed control or into various treatment groups. For those randomized into an injection treatment group: one eye received a 5 μl intravitreal injection of 0.1%, 0.3%, 0.6%, or 1% RTKi and the contralateral eye received a 5 μl intravitreal injection of vehicle. At Day 14/6 (20 days postpartum), all animals in both studies were euthanized. Immediately following euthanasia, retinas from all rat pups were harvested, fixed in 10% neutral buffered formalin for 24 hours, subjected to ADPase staining, and fixed onto slides as whole mounts. Digital images were acquired from each retinal flat mount that was adequately prepared. Computerized image analysis was used to obtain a NV clockhour score from each readable sample. Each clockhour out of 12 total per retina was assessed for the presence or absence of preretinal NV. Statistical comparisons using median scores for NV clockhours from each treatment group were utilized in nonparametric analyses. Each noninjected pup represented one NV score by taking the average value of both eyes and was used in comparisons against each dosage group. Because the pups were randomly assigned and no difference was observed between oxygen-exposed control pups from all litters, the NV scores were combined for all treatment groups. P≦0.05 was considered statistically significant.

[3] = test system: existing laser-induced choroidal neovascularization (CNV); experiment: Regression of existing laser-induced CNV in the mouse, intravitreal injection at 7 days post-laser; type: in vivo
Experimental: METHODS: CNV was generated by laser-induced rupture of Bruch's membrane. Briefly, 4 to 5 week old male C57BL/6J mice were anesthetized using intraperitoneal administration of ketamine hydrochloride (100 mg/kg) and xylazine (5 mg/kg) and the pupils of both eyes dilated with topical ocular instillation of 1% tropicamide and 2.5% Mydfin®. One drop of topical cellulose (Gonioscopic®) was used to lubricate the cornea. A hand-held cover slip was applied to the cornea and used as a contact lens to aid visualization of the fundus. Three to four retinal burns were placed in randomly assigned eye (right or left eye for each mouse) using the Alcon 532 nm EyeLite laser with a slit lamp delivery system. The laser burns were used to generate a rupture in Bruch's membrane, which was indicated opthalmoscopically by the formation of a bubble under the retina. Only mice with laser burns that produced three bubbles per eye were included in the study. Burns were typically placed at the 3, 6, 9 or 12 o'clock positions in the posterior pole of the retina, avoiding the branch retinal arteries and veins. […]
METHODS: CNV was generated by laser-induced rupture of Bruch's membrane as described above in Example 3. […] Choroidal flat mounts were analyzed as described above in Example 3.

[4] = test system: diabetes-induced retinal vascular permeability; experiment: Diabetes-induced retinal vascular permeability in the STZ rat model, oral gavage; type: in vivo
Experimental: METHODS: Diabetes was induced in male Long-Evans rats with 65 mg/kg streptozotocin (STZ) after an overnight fast. Upon confirmation of diabetes (blood glucose >250 mg/dl), treatment was initiated by oral gavage. Non-diabetic (NDM) and diabetic (DM) rats received oral gavage of either vehicle or RTK inhibitor at 1.5 or 5 mg/kg/d BID. After 2 weeks, jugular vein catheters were implanted 1 day prior to experimentation for the infusion of indicator dye. Retinal vascular permeability, RVP, was measured using Evan's blue albumin permeation (45 mg/kg) after a 2 hour circulation period.

[5] = test system: laser-induced choroidal neovascularization (CNV); experiment: Laser-induced CNV in the mouse, oral gavage, prevention paradigm; type: in vivo
[6] = test system: laser-induced choroidal neovascularization (CNV); experiment: Laser-induced choroidal neovascularization (CNV) in the mouse, prevention, intravitreal injection; type: in vivo
Experimental: METHODS: CNV was generated by laser-induced rupture of Bruch's membrane. Briefly, 4 to 5 week old male C57BL/6J mice were anesthetized using intraperitoneal administration of ketamine hydrochloride (100 mg/kg) and xylazine (5 mg/kg) and the pupils of both eyes dilated with topical ocular instillation of 1% tropicamide and 2.5% Mydfin®. One drop of topical cellulose (Gonioscopic®) was used to lubricate the cornea. A hand-held cover slip was applied to the cornea and used as a contact lens to aid visualization of the fundus. Three to four retinal burns were placed in randomly assigned eye (right or left eye for each mouse) using the Alcon 532 nm EyeLite laser with a slit lamp delivery system. The laser burns were used to generate a rupture in Bruch's membrane, which was indicated opthalmoscopically by the formation of a bubble under the retina. Only mice with laser burns that produced three bubbles per eye were included in the study. Burns were typically placed at the 3, 6, 9 or 12 o'clock positions in the posterior pole of the retina, avoiding the branch retinal arteries and veins.
Each mouse was randomly assigned into one of the following treatment groups: noninjected controls, sham-injected controls, vehicle-injected mice, or one of three RTKi-injected groups. […]

[7] = test system: preretinal neovascularization (NV); experiment: Rat OIR model, oral gavage; type: in vivo
Experimental: Immediately following euthanasia, retinas from all rat pups were harvested, fixed in 10% neutral buffered formalin for 24 hours, subjected to ADPase staining, and fixed onto slides as whole mounts. Digital images were acquired from each retinal flat mount that was adequately prepared. Computerized image analysis was used to obtain a NV clockhour score from each readable sample. Each clockhour out of 12 total per retina was assessed for the presence or absence of preretinal NV. Statistical comparisons using median scores for NV clockhours from each treatment group were utilized in nonparametric analyses. Each noninjected pup represented one NV score by taking the average value of both eyes and was used in comparisons against each dosage group. Because the pups were randomly assigned and no difference was observed between oxygen-exposed control pups from all litters, the NV scores were combined for all treatment groups. P≦0.05 was considered statistically significant. METHODS: Pregnant Sprague-Dawley rats were received at 14 days gestation and subsequently gave birth on Day 22±1 of gestation. Immediately following parturition, pups were pooled and randomized into separate litters (n=17 pups/litter), placed into separate shoebox cages inside oxygen delivery chamber, and subjected to an oxygen-exposure profile from Day 0 to Day 14 postpartum. Litters were then placed into room air from Day 14/0 through Day 14/6 (days 14-20 postpartum). Additionally on Day 14/0, each pup was randomly assigned as oxygen-exposed controls, vehicle treated, or drug-treated at 1.5, 5, 10 mg/kg, p.o., BID. At Day 14/6 (20 days postpartum), all animals in both studies were euthanized and retina whole mounts were prepared as described in Example 1 above.

diabetic macular edema = settings: topical ocular administration, Japanese patients with diabetic macular edema; cited from earlier work
exudative AMD = settings: Phase III, patients treated, at 24 months, up to; cited from earlier work

Cc1ccc(F)c(NC(=O)Nc2ccc(-c3cccc4[nH]nc(N)c34)cc2)c1 [Compound 86, N-[4-[3-amino-1H-indazol-4-yl]phenyl]-N′-(2-fluoro-5-methylphenyl)urea]
regression of existing CNV (in words) [1]: did not show a significant regression of existing CNV
% Inhibition (vs. vehicle-injected eye) of preretinal NV ([2]; 0.1% RTKi): 37%
efficacy against preretinal NV (in words) ([2]; 0.1% treated eyes, intravitreal): Efficacy was not observed
Median NV (clockhour score) ([2]; 0.3% RTKi): 0
% Inhibition (vs. vehicle-injected eye) of preretinal NV ([2]; 0.3% RTKi): 100%
Median NV (clockhour score) ([2]; 0.6% RTKi): 0
% Inhibition (vs. vehicle-injected eye) of preretinal NV ([2]; 0.6% RTKi): 100%
Median NV (clockhour score) ([2]; 1% RTKi): 0
% Inhibition (vs. vehicle-injected eye) of preretinal NV ([2]; 1% RTKi): 100%
effect on preretinal NV (in words, FIG. 1) ([2]; single intravitreal injection): inhibits preretinal neovascularization (NV)
reduction of median CNV area at 14 days compared to CNV present at 7 days post-laser ([3]; 5 μl 3% RTKi intravitreal at day 7): 41.0%
effect on existing laser-induced CNV (in words, FIG. 4) ([3]; single intravitreal injection): induces regression of existing laser-induced choroidal neovascularization (CNV)
RVP in non-diabetic rats (in words) ([4]; NDM treated at 5 mg/kg/d oral gavage): unchanged
Blood glucose levels and body weights, DM control versus DM treatment groups ([4]; oral gavage, DM rats): not different
systemic or ERG side effects ([4]; oral, NDM and DM groups): no observed systemic or ERG side effects
tolerability ([4]; oral, NDM and DM groups): well tolerated
inhibition of CNV (in words) ([5]; 20 mg/kg/d p.o., prevention paradigm): complete inhibition of CNV
effect on laser-induced CNV (in words, FIG. 6) ([5]; oral gavage): inhibits laser-induced choroidal neovascularization (CNV)
difference in CNV versus vehicle injected eyes (in words) ([6]; 0.3% RTKi, 5 ul intravitreal): marginal statistical difference
effect on laser-induced CNV (in words, FIG. 3) ([6]; single intravitreal injection): inhibits laser-induced choroidal neovascularization (CNV)
% Inhibition (vs vehicle-injected eye) of preretinal NV ([7]; 3 mg/kg RTKi in PEG 400, p.o.): −1.4%
Median NV (clockhour score) ([7]; 3 mg/kg RTKi in PEG 400, p.o.): 7.5
decrease in NV (in words) ([7]; 3 mg/kg/day p.o.): did not have a significant decrease in NV
% Inhibition (vs vehicle-injected eye) of preretinal NV ([7]; 20 mg/kg RTKi in PEG 400, p.o.): 100%
Median NV (clockhour score) ([7]; 20 mg/kg RTKi in PEG 400, p.o.): 0
inhibition of preretinal NV (in words) ([7]; 20 mg/kg/day p.o.): complete inhibition of preretinal NV
effect on preretinal NV (in words, FIG. 2) ([7]; oral gavage): prevents preretinal neovascularization (NV)

CC(C)NCC(O)COc1ccc(CCOCC2CC2)cc1 (centres unmarked) [betaxolol]
effect on vision (in words) (diabetic macular edema): stabilized vision

B1: ranibizumab (antibody, chains of the INN, looked up, V domains shown)
VH: EVQLVESGGGLVQPGGSLRLSCAASGYDFTHYGMNWVRQAPGKGLEWVGWINTYTGEPTYAADFKRRFTFSLDTSKSTAYLQMNSLRAEDTAVYYCAKYPYYYGTSHWYFDVWGQGTLVTVSS
VL: DIQLTQSPSSLSASVGDRVTITCSASQDISNYLNWYQQKPGKAPKVLIYFTSSLHSGVPSRFSGSGSGTDFTLTISSLQPEDFATYYCQQYSTVPWTFGQGTKVEIK
modifications: Fab
patients with improved visual acuity (exudative AMD): 35-40%
